Laboratory results reported in patent US9062289B2, “Differentiation of primate pluripotent stem cells to cardiomyocyte-lineage cells” (Asterias Biotherapeutics, Inc., priority 2005, dated 2015).

Tested on: primate pluripotent stem cell-derived cardiomyocytes
Assay: Contractile activity of primate pluripotent stem cell-derived cardiomyocytes
Format: cell-based
Details: spontaneous periodic contractions in culture
Protocol: Under appropriate circumstances, primate pluripotent stem cell-derived cardiomyocytes often show spontaneous periodic contractile activity. This means that when they are cultured in a suitable tissue culture environment with an appropriate Ca^++ concentration and electrolyte balance, the cells can be observed to contract across one axis of the cell, and then release from contraction, without having to add any additional components to the culture medium. The contractions are periodic, which means that they repeat on a regular or irregular basis, at a frequency between ˜6 and 200 contractions per minute, and often between ˜20 and ˜90 contractions per minute in normal buffer (FIG. 2). Individual cells may show spontaneous periodic contractile activity on their own, or they may show spontaneous periodic contractile activity in concert with neighboring cells in a tissue, cell aggregate, or cultured cell mass.
The contractile activity of the cells can be characterized according to the influence of culture conditions on the nature and frequency of contractions. Compounds that reduce available Ca^++ concentration or otherwise interfere with transmembrane transport of Ca^++ often affect contractile activity. […] Further characterization of functional properties of the cell can involve characterizing channels for Na^+, K^+, and Ca^++. Electrophysiology can be studied by patch clamp analysis for cardiomyocyte like action potentials. See Igelmund et al., Pflugers Arch. 437:669, 1999; Wobus et al., Ann. N.Y. Acad. Sci. 27:752, 1995; and Doevendans et al., J. Mol. Cell Cardiol. 32:839, 2000.

Row | SMILES | chronotropic effect | contractile activity
1 | CC(C)NCC(O)c1ccc(O)c(O)c1 (stereo not drawn) [isoprenaline] | positive chronotropic effect | –
2 | COc1ccc([C@@H]2Sc3ccccc3N(CCN(C)C)C(=O)[C@@H]2OC(C)=O)cc1 [diltiazem] | – | inhibits contractile activity in a dose-dependent manner
3 | CNC[C@H](O)c1cccc(O)c1 [phenylephrine] | positive chronotropic effect | –
